Results reported in patent publication US8003785B2 (Takeda Pharmaceutical Company Limited, priority 2008, dated 2011).

Each compound was assayed against T1, PLK1 (Homo sapiens, UniProt P53350) (assay: Biochemical Characterization Assay: HTRF kinase assay, GST-PLK1 phosphorylation of GST-p53). Settings: GST-PLK1, GST-p53 substrate.
T1 construct: Full-length, active GST-PLK1 is purified from Sf9 insect cells; made in house; host or cells: Sf9 insect cells
T1 sequence (P53350 whole entry): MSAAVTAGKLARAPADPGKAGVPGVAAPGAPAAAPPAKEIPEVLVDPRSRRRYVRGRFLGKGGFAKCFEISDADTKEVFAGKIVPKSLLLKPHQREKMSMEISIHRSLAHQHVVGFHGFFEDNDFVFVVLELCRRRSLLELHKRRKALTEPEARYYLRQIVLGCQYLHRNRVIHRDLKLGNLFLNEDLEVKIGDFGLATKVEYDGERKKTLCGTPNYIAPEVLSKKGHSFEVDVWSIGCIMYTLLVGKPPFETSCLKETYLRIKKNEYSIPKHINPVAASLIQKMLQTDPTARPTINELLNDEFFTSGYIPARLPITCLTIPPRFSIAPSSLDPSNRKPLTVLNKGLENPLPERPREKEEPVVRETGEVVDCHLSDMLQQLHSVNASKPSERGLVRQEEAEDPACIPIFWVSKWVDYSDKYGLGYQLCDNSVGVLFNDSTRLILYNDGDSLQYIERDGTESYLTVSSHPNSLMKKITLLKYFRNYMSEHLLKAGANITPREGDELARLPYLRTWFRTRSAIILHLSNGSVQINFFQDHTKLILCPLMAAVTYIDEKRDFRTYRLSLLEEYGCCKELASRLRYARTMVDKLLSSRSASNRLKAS
Method in brief: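 HTRF read-out of p53 phosphorylation: after EDTA stop, anti-phospho-p53 antibody bound 30 min at 37 °C in HEPES pH 7 buffer, with Eu-anti-rabbit/APC-anti-GST detection. Kinase step used full-length Sf9-expressed GST-PLK1 (3 ug/mL) and E. coli GST-p53 substrate, 35 min at 37 °C.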
In the case of COc1cc(C(=O)O)ccc1Nc1ncc2c(n1)N([C@@H]1C[C@H]1c1ccccc1)CC(F)(F)C(=O)N2C (relative stereo) [Example I-287, 4-[7,7-difluoro-5-methyl-6-oxo-9-(trans-2-phenyl-cyclopropyl)-6,7,8,9-tetrahydro-5H-pyrimido[4,5-b][1,4]diazepin-2-ylamino]-3-methoxy-benzoic acid], the IC50 is reported as over 5000 nM.
Work on CN1C(=O)C(F)(F)CN(C2CCCC2)c2nc(Nc3ccc(C(=O)NC4CCNCC4)cc3F)ncc21 [Example I-230, 4-(9-cyclopentyl-7,7-difluoro-5-methyl-6-oxo-6,7,8,9-tetrahydro-5H-pyrimido[4,5-b][1,4]diazepin-2-ylamino)-3-fluoro-N-piperidin-4-yl-benzamide] yielded an IC50 of 1 to 50 nM.
Compound Cc1cc(C(=O)NC2CCN(C(=O)OC(C)(C)C)CC2)ccc1Nc1ncc2c(n1)N(C1CCCC1)CC(F)(F)C(=O)N2C [Example I-191, 4-[4-(9-cyclopentyl-7,7-difluoro-5-methyl-6-oxo-6,7,8,9-tetrahydro-5H-pyrimido[4,5-b][1,4]diazepin-2-ylamino)-3-methyl-benzoylamino]-piperidine-1-carboxylic acid tert-butyl ester] has an IC50 of 1 to 50 nM.

Same assay, conditions: GST-PLK1, GST-p53 substrate, ATP
COc1cc(C(=O)N[C@H]2CC[C@@H](NC(=O)OC(C)(C)C)CC2)ccc1Nc1ncc2c(n1)N(C1CCCC1)CC(F)(F)C(=O)N2C [Example I-97, cis-{4-[4-(9-cyclopentyl-7,7-difluoro-5-methyl-6-oxo-6,7,8,9-tetrahydro-5H-pyrimido[4,5-b][1,4]diazepin-2-ylamino)-3-methoxy-benzoylamino]-cyclohexyl}-carbamic acid tert-butyl ester] showed an IC50 of 51 to 500 nM.
Compound CNC(=O)c1ccc(Nc2ncc3c(n2)N(C2CCCC2)CC(F)(F)C(=O)N3)c(OC)c1 [Example I-153, 4-(9-cyclopentyl-7,7-difluoro-6-oxo-6,7,8,9-tetrahydro-5H-pyrimido[4,5-b][1,4]diazepin-2-ylamino)-3-methoxy-N-methyl-benzamide] has an IC50 of 500 to 5000 nM.
Compound COc1cc(C(=O)NC2CCOCC2)ccc1Nc1ncc2c(n1)N(C1CCCC1)CC(F)(F)C(=O)N2 [Example I-155, 4-(9-cyclopentyl-7,7-difluoro-6-oxo-6,7,8,9-tetrahydro-5H-pyrimido[4,5-b][1,4]diazepin-2-ylamino)-3-methoxy-N-(tetrahydro-pyran-4-yl)-benzamide] has an IC50 of over 5000 nM.
For COc1cc(C(=O)NCCCN2CCN(C)CC2)ccc1Nc1ncc2c(n1)N(C1CCCC1)CC(F)(F)C(=O)N2C [Example I-87, 4-(9-cyclopentyl-7,7-difluoro-5-methyl-6-oxo-6,7,8,9-tetrahydro-5H-pyrimido[4,5-b][1,4]diazepin-2-ylamino)-3-methoxy-N-[3-(4-methyl-piperazin-1-yl)-propyl]-benzamide], the IC50 was 1 to 50 nM.
Compound COc1cc(C(=O)N[C@@H]2CNC[C@H]2O)ccc1Nc1ncc2c(n1)N(C1CCCC1)CC(F)(F)C(=O)N2C [Example I-104, 4-(9-cyclopentyl-7,7-difluoro-5-methyl-6-oxo-6,7,8,9-tetrahydro-5H-pyrimido[4,5-b][1,4]diazepin-2-ylamino)-N-((3R,4R)-4-hydroxy-pyrrolidin-3-yl)-3-methoxy-benzamide] has an IC50 of 1 to 50 nM.
Compound COc1cc(C(=O)NC2CC(C)(C)NC(C)(C)C2)ccc1Nc1ncc2c(n1)N(C1CCCC1)CC(F)(F)C(=O)N2C [Example I-65, 4-(9-cyclopentyl-7,7-difluoro-5-methyl-6-oxo-6,7,8,9-tetrahydro-5H-pyrimido[4,5-b][1,4]diazepin-2-ylamino)-3-methoxy-N-(2,2,6,6-tetramethyl-piperidin-4-yl)-benzamide] has an IC50 of 1 to 50 nM.
COc1cc(C(=O)NN2CCN(C)CC2)ccc1Nc1ncc2c(n1)N(C1CCCC1)CC(F)(F)C(=O)N2C [Example I-118, 4-(9-cyclopentyl-7,7-difluoro-5-methyl-6-oxo-6,7,8,9-tetrahydro-5H-pyrimido[4,5-b][1,4]diazepin-2-ylamino)-3-methoxy-N-(4-methyl-piperazin-1-yl) benzamide] showed an IC50 of 1 to 50 nM.
